Read-outs that look alike come from different tables or passages of the source. Each block holds one compound with its values, some of them ahead of it.
Columns and labels:
Type in all cases: cell-based, human
CAOV3 cells [1] = assay: CyQuant cell viability assay, CAOV3; details: for Efficacy: % loss of cell viability at maximum tested concentration
Experimental: (§1) Cells were seeded into 96-well plates and treated with serial dilutions with the designated compounds for 72 h. Medium was then removed from the wells, and the cells were frozen at -80 °C for storage. After thawing, cell viability was analyzed using the CyQUANT™ Cell Proliferation Assay for cells in culture (Invitrogen, ThermoFisher Scientific, Waltham, MA, USA), according to manufacturer’s instructions. The CyQuant assay utilizes a DNA binding fluorescent dye, and the signal is proportional to the number of live cells, which thus reflects the effect of drug treatment on both cell proliferation and cytotoxicity. To integrate these two measures (proliferation and cytotoxicity) into one simple term, we refer to CyQuant data as a measure of cell viability. Fluorescence intensity was measured using POLARstar OPTIMA microplate multi-detection plate reader (BMG LabTech, Cary, NC, USA) with settings specified by the manufacturer’s instructions.

OVCAR4 cells [2] = assay: CyQuant cell viability assay, OVCAR4; details: for Efficacy: % loss of cell viability at maximum tested concentration
Experimental: as §1

HGSOC cells = assay: CyQuant cell viability assay, HGSOC cells (CAOV3 and OVCAR4), summary in words; details: summary of Table 3
Experimental: as §1
We investigated the effect of eight previously reported FOXM1 inhibitors on HGSOC cell viability. We utilized CAOV3 and OVCAR4 cells, which are validated to model HGSOC both in vitro and in vivo [38, 39], and measured the effect on cell viability using CyQuant assays. The data are summarized in Table 3 (drugs ordered alphabetically).

FT282-C11 cells [3] = assay: CyQuant cell viability assay, FT282-C11 (immortalized FTE control); details: for Efficacy: % loss of cell viability at maximum tested concentration; for Fold HGSOC cell selectivity: IC50 in FT282-C11 divided by the averaged IC50 values of CAOV3 and OVCAR4 cells
Experimental: as §1
To investigate the cancer cell selectivity of FOXM1 inhibitors, we utilized the immortalized (FTE) cell line FT282-C11 as non-malignant, cell of origin matched control. […] We tested a sub-set of FOXM1 inhibitors, including the three NB compounds and the two most widely used FOXM1 inhibitors, thiostrepton and FDI-6.

CAOV3 cells [4] = assay: Caspase-3/7 activity assay, CAOV3; details: 24 h
Experimental: (§2) Cells were seeded into 6-well plates and treated with the designated compounds until the desired time point. Floating cells and trypsinized cells from the wells were collected, centrifuged at 500 × g, and washed with PBS. Cells were prepared using the Muse® Caspase-3/7 Kit (Luminex Corporation, Austin, TX, USA) according to the manufacturer’s instructions. Cells were analyzed by flow cytometry using the Guava® Muse® Cell Analyzer (Luminex Corporation).

OVCAR4 cells [5] = assay: Caspase-3/7 activity assay, OVCAR4; details: 24 h
Experimental: as §2

FT282-C11 cells [6] = assay: Caspase-3/7 activity assay, FT282-C11; details: 24 h
Experimental: as §2

CAOV3 cells [7] = assay: Drug washout study, CyQuant cell viability; details: Fig. 7E-F
Experimental: as §1
To assess FOXM1 protein expression, cells were seeded into 6-well plates and treated with DMSO or NB compounds the next day. At 3- or 6-h post-treatment, media was aspirated and cells were washed with PBS and incubated with drug-free media until reaching 24, 48, or 72 h post the initial treatment. At time points post-treatment, protein was isolated from washout and no washout (i.e., continuous treatment) treatment conditions and used for western blotting. To assess the effects of drug washout on cell viability, cells were seeded in 96-well plates, treated as described above, and cell viability was assessed at 72 h post the initial treatment using CyQuant assays.

CAOV3 cells [8] = assay: Incucyte kinetic analysis of live and dead cells; details: 0.1 μM
Experimental: CAOV3 cells were seeded into 96-well plates in DMEM media containing Incucyte Nuclight Rapid Red Dye (Sartorius, Bohemia, NY, USA, Cat #4717) 1:1,000 (for live cell nuclear labeling) and Incucyte Cytotox Green Dye (Sartorius Cat #4633) 250 μM (for counting of dead cells). The following day, cells were treated with DMSO or NB compounds at 0.1, 0.5 or 1.0 μM concentrations. After treatment, cells were incubated in a Incucyte S3 time lapse imager (Sartorius). We obtained 5 pictures per well every 2 h, for a total of 72 h. Data were analyzed and plotted using Incucyte Live-cell Imaging and Analysis software.

[9] = system: FOXM1 targets (CCNB1, PLK1, AURKB, CDC25B); assay: Western blot of FOXM1 target proteins in HGSOC cells; details: CAOV3 and OVCAR4; low micromolar treatments
Experimental: Whole cell proteins were extracted using radio-immunoprecipitation assay (RIPA) buffer (1X PBS, 1% NP-40, 0.5% sodium deoxycholate, 0.1% sodium dodecyl sulfate [SDS]) supplemented with protease and phosphatase inhibitors (Sigma-Aldrich). Briefly, media was removed from cells, cells were washed in ice cold PBS, and cells were lysed for 15 min in RIPA buffer, collected from the plate, and sonicated. The resulting extracts were centrifuged at 4 °C for 10 min at 16,100 × g to remove cell debris. In some cases (e.g., when measuring apoptotic markers such as cleaved PARP) floating cells were isolated in parallel and combined with the remainder of the cell sample prior to protein extraction. Protein concentrations were determined using the Pierce™ BCA Protein Assay Kit (Fisher Scientific, Waltham, MA, USA).
Equivalent amounts of protein per well, as determined by BCA assays, were loaded into Invitrogen™ NuPAGE™ 4–12%, Bis–Tris, 1.5 mm, mini protein gels (Fisher Scientific) or 7.5% Mini-Protein TGX precast protein gels (Bio-Rad, Hercules, CA, USA), and subsequently transferred to 0.45 µm polyvinylidene difluoride (PVDF) membranes (Millipore Sigma, St. Louis, MO, USA), using a wet transfer system. […] Quantification of protein expression was performed using Fiji software.

[10] = FT282-C11, CyQuant, Table 4, read-out: IC50
[11] = CAOV3, % loss of cell viability at the maximum tested drug concentration (printed in parentheses in the cell), Table 3
[12] = CAOV3, CyQuant, Table 4, read-out: IC50
[13] = CAOV3, cell viability, CyQuant, 72 h, Table 3, read-out: Potency [IC50 (µM)]
[14] = OVCAR4, % loss of cell viability at the maximum tested drug concentration (printed in parentheses in the cell), Table 3
[15] = OVCAR4, CyQuant, Table 4, read-out: IC50
[16] = OVCAR4, cell viability, CyQuant, 72 h, Table 3, read-out: Potency [IC50 (µM)]
[17] = Homo sapiens, Caov-3, 72 h, read-out: Potency [IC50 (µM)]
[18] = Homo sapiens, Caov-3, read-out: % Efficacy (maximum dose)
[19] = Homo sapiens, OVCAR-4, 72 h, read-out: Potency [IC50 (µM)]
[20] = Homo sapiens, OVCAR-4, read-out: % Efficacy (maximum dose)

SMILES: CC[C@@]1([C@@H]2O[C@@H]([C@H]3O[C@@](O)(CO)[C@H](C)C[C@@H]3C)C[C@@H]2C)CC[C@H]([C@]2(C)CC[C@]3(C[C@H](O)[C@@H](C)[C@@H]([C@@H](C)[C@@H](OC)[C@H](C)C(=O)O)O3)O2)O1 [Monensin, monensin]
Emax (CAOV3 cells [1]; Homo sapiens, Caov-3, CAOV3, % loss of cell viability at the maximum tested drug concentration (printed in parentheses in the cell), Table 3, read-out: % Efficacy (maximum dose)): 100% | IC50 (CAOV3 cells [1]; Homo sapiens, Caov-3, CAOV3, cell viability, CyQuant, 72 h, Table 3, read-out: Potency [IC50 (µM)]): 0.1 µM | Emax (OVCAR4 cells [2]; Homo sapiens, OVCAR-4, OVCAR4, % loss of cell viability at the maximum tested drug concentration (printed in parentheses in the cell), Table 3, read-out: % Efficacy (maximum dose)): 52% | IC50 (OVCAR4 cells [2]; Homo sapiens, OVCAR-4, OVCAR4, cell viability, CyQuant, 72 h, Table 3, read-out: Potency [IC50 (µM)]): 0.024 µM | potency and efficacy on HGSOC cell viability, in words (HGSOC cells): high potency but low efficacy in one cell line (OVCAR4)

SMILES: CC[N+](C)(CC)CCCCCCOc1ccc(C(c2ccc(OCCCCCC[N+](C)(CC)CC)cc2)=C2C3C[C@H]4C[C@@H](C3)C[C@H]2C4)cc1 [NB-115]
Efficacy (FT282-C11 cells [3]; FT282-C11, Table 4): 100% | IC50 (FT282-C11 cells [3]; [10]): 3800 nM | selectivity for HGSOC cells (FT282-C11 cells [3]; HGSOC cells vs FT282-C11, summary of Table 4): approximately tenfold | Fold HGSOC cell selectivity (FT282-C11 cells [3]): 7.2 | Efficacy (CAOV3 cells [1]; CAOV3, Table 4): 100% | % Efficacy (maximum dose) (CAOV3 cells [1]; [11]): 100% (10 μM) | IC50 (CAOV3 cells [1]; [12]): 0.49 µM | IC50 (CAOV3 cells [1]; [13]): 0.49 µM | caspase 3/7 activity (CAOV3 cells [4]): robust increase in caspase 3/7 activity | Efficacy (OVCAR4 cells [2]; OVCAR4, Table 4): 85% | % Efficacy (maximum dose) (OVCAR4 cells [2]; [14]): 85% (10 μM) | IC50 (OVCAR4 cells [2]; [15]): 0.56 µM | IC50 (OVCAR4 cells [2]; [16]): 0.56 µM | caspase 3/7 activity (OVCAR4 cells [5]): robust increase in caspase 3/7 activity | caspase 3/7 activity (FT282-C11 cells [6]): but not in FT282-C11 cells | IC50 (CAOV3 cells [7]; continuous drug exposure 72 h, viability at 72 h, read-out: IC50 (CAOV3), no washout (72h)): 830 nM | IC50 (CAOV3 cells [7]; washout after 3 h, viability at 72 h post initial treatment, read-out: IC50 (CAOV3), 3 h drug exposure then washout (3h)): 2150 nM | IC50 (CAOV3 cells [7]; washout after 6 h, viability at 72 h post initial treatment, read-out: IC50 (CAOV3), 6 h drug exposure then washout (6h)): 2300 nM | cell proliferation compared to the DMSO control (CAOV3 cells [8]): increased proliferation | FOXM1 targets at the protein level [9]: suppressed FOXM1 targets at the protein level

SMILES: c1ccc(Nc2cc3ccccc3c3ccccc23)cc1 [N-phenylphenanthren-9-amine (NP9), N-phenylphenanthren-9-amine]
IC50 (CAOV3 cells [1]; [17]): 23 µM | Emax (CAOV3 cells [1]; [18]): 85% | IC50 (OVCAR4 cells [2]; [19]): 39 µM | Emax (OVCAR4 cells [2]; [20]): 100% | potency and efficacy on HGSOC cell viability, in words (HGSOC cells): low potency

IC50 (OVCAR4 cells [2]; [15]): 4.7 µM | IC50 (OVCAR4 cells [2]; [16]): 4.7 µM
SMILES: Nc1c(C(=O)Nc2ccc(F)cc2)sc2nc(-c3cccs3)cc(C(F)(F)F)c12 [FDI-6]
Efficacy (FT282-C11 cells [3]; FT282-C11, Table 4): 76% | IC50 (FT282-C11 cells [3]; [10]): 11000 nM | Fold HGSOC cell selectivity (FT282-C11 cells [3]): 1.6 | Efficacy (CAOV3 cells [1]; CAOV3, Table 4): 61% | % Efficacy (maximum dose) (CAOV3 cells [1]; [11]): 61% (20 μM) | IC50 (CAOV3 cells [1]; [12]): 9.1 µM | IC50 (CAOV3 cells [1]; [13]): 9.1 µM | Efficacy (OVCAR4 cells [2]; OVCAR4, Table 4): 61% | % Efficacy (maximum dose) (OVCAR4 cells [2]; [14]): 61% (20 μM) | potency and efficacy on HGSOC cell viability, in words (HGSOC cells): low potency

SMILES: C=C(NC(=O)C(=C)NC(=O)c1csc(C2=N[C@@H]3c4csc(n4)[C@H]4NC(=O)c5csc(n5)[C@H]([C@](C)(O)[C@@H](C)O)NC(=O)[C@H]5CSC(=N5)/C(=C/C)NC(=O)[C@H]([C@@H](C)O)NC(=O)c5csc(n5)[C@]3(CC2)NC(=O)[C@H](C)NC(=O)C(=C)NC(=O)[C@H](C)NC(=O)[C@H]([C@@H](C)CC)N[C@@H]2C=Cc3c([C@H](C)O)cc(nc3[C@H]2O)C(=O)O[C@@H]4C)n1)C(N)=O [Thiostrepton]
Efficacy (FT282-C11 cells [3]; FT282-C11, Table 4): 100% | IC50 (FT282-C11 cells [3]; Homo sapiens): 730 nM | Fold HGSOC cell selectivity (FT282-C11 cells [3]): 0.91 | Efficacy (CAOV3 cells [1]; CAOV3, Table 4): 93% | IC50 (CAOV3 cells [1]; Homo sapiens, Caov-3): 0.62 µM | IC50 (CAOV3 cells [1]; [17]): 0.62 µM | Emax (CAOV3 cells [1]; [18]): 93% | IC50 (OVCAR4 cells [2]; Homo sapiens, OVCAR-4): 0.98 µM | IC50 (OVCAR4 cells [2]; [19]): 0.98 µM | Emax (OVCAR4 cells [2]; [20]): 99% | Efficacy (OVCAR4 cells [2]; OVCAR4, Table 4): 99% | potency and efficacy on HGSOC cell viability, in words (HGSOC cells): high potency and efficacy

Reference: article PMC11069232, “NB compounds are potent and efficacious FOXM1 inhibitors in high-grade serous ovarian cancer cells” (Journal of Ovarian Research, 2024)
